From US20140187507A1, “TREATMENT OF PARKINSONS DISEASE WITH GLYCOLIPIDS” (Rutgers, The State University of New Jersey, priority 2012, published 2014)
Entries after “also recorded” stand apart in the source; their conditions may differ.

Columns and labels:
[1] = test system: GM1 deficient mice (HT, KO); experiment: Motor function in GM1 deficient mice (grip duration, irritant removal, pole climbing); type: in vivo, mouse; conditions: HT mice 200 DOA
Procedure: FIG. 4. […] Grip duration (a) and irritant removal (b) were tested in mice at 200 DOA before and after IP injection of L-DOPA.
FIG. 5. […] Mice (200 DOA) were treated IP with saline or compound XVIII (2.5 mg/Kg; 3×/wk) over 5 weeks. (a) grip duration; (b) irritant removal; (c) pole climbing.
HT mice (200 DOA) were treated with saline or analog XVIII (2.5 mg/Kg; 3×/wk; IP) over 5 weeks.

[2] = test system: GM1 deficient mice (HT, KO); experiment: Rescue of striatal dopamine levels and dopaminergic cells in the GM1 deficient mouse (IHC of SNpc); type: in vivo; conditions: HT mice 200 days old, 2.5 mg/Kg, 3x/wk, ip, 5 weeks, vs saline
Procedure: FIG. 3. Reversal of PD neuropathology by GM1 replacement. HT mice (200 days old) were treated with saline or compound XVIII (2.5 mg/Kg; 3×/wk, ip) over 5 weeks.
Heterozygote mice (200 days old, DOA) were treated with saline or analog XVIII (2.5 mg/Kg; 3×/wk, IP) over 5 weeks.

[3] = test system: HT GM1 deficient mice; experiment: Cognitive function in GM1 deficient mice, T-maze test; type: in vivo, mouse; conditions: 4 wks dosing, 4 mice/group, saline control
Procedure: FIG. 6. […] T-maze test: 4 wks dosing with GM1 analog XVIII; 4 mice/group; age as indicated. The rate of alternation is a statistical plot as 0.5 (pure chance) to 1.0 (perfect score). Saline was administered as control.
HT and KO mice in two age groups were evaluated for cognitive function with the T maze test (FIG. 6).

[4] = test system: RET phosphorylation (RET-p); experiment: RET phosphorylation in GM1 deficient mice, IHC with anti-RET-P and anti-TH; type: in vivo, mouse
Source text: FIG. 8. GM1 replacement restores normal RET phosphorylation (RET-p) from subnormal state in GM1 deficient mice.

[5] = test system: NG-CR72 cells lacking GM1; experiment: Spontaneous alpha-synuclein aggregation in differentiated cells deficient in GM1; type: cell-based; conditions: 1 μM; cells differentiated with db-cAMP/KCl
Source text: FIG. 9. Spontaneous formation of alpha-synuclein aggregates in cells deficient in GM1.

[6] = test system: NG108-15 neuroblastoma cells; experiment: Cell death and neurite outgrowth in MPP-treated differentiated neuroblastoma cells; type: cell-based
Source text: FIG. 12. GM1 replacement therapy reduces cell death and increases neurite outgrowth. NG108-15 neuroblastoma cells were differentiated for 7 days with db-cAMP/KCl, then treated 2 days with MPP and indicated compound for 2 days. […] LIGA-20 is GM1 analog XVIII and compound 6 is analog XXXVII/XXXVIII.

[7] = test system: MPTP-treated mice; experiment: Rescue of striatal dopamine levels and dopaminergic cells in MPTP-treated mice; type: in vivo, C57B1/6 mice; conditions: once daily for 3 weeks after MPTP; GM1 30 mg/kg IP; analogs 2, 3, 4, 6, LIGA20 at 0.3 or 30 mg/Kg IP or 30 mg/Kg PO (FIG. 10)
Procedure: FIG. 10. GM1 analogs increase dopamine and TH+ cell numbers in the SNpc of MPTP treated mice. All agents administered once daily (I.P. or P.O.) for 3 weeks following MPTP treatment. (a) GM1 (1; 30 mg/Kg; IP), analog (3, 4 and 6; 0.3 mg/Kg; IP). (b) LIGA20 (2; 30 mg/Kg), analogs (2, 3 and 6; 30 mg/Kg; IP). (c) analogs (4 and 6; 30 mg/Kg; PO). (d) TH+IHC of the SNpc after treatment with saline or analog (6) (30 mg/Kg; PO) C=saline control. I and II are two separate experiments. Compound 2 is (XXIX/XXX), compound 3 is (XXVII/XXVIII), compound 4 is (XXXI/XXXII), compound 6 is (XXXVIII/XXXVII). LIGA20 is (XVIII).
C57B1/6 mice 7-8 weeks of age were treated with MPTP (b.i.d., 20 mg/kg, s.c.). The mice also receive a daily administration of saline, GM1 (30 mg/kg), or a compound of the invention (0.3 to 3 mg/kg, i.p. and 30 mg/kg os) for three weeks starting 24 h after the last MPTP injection. The brains were removed and analyzed for striatal dopamine levels. The midbrain were fixed for TH immunohistochemistry and dopamine neuron cell counts.

[8] = test system: rat cortical cells; experiment: Protection of cortical cells from apoptosis (hydrogen peroxide, MTT assay); type: cell-based; conditions: 50 μM hydrogen peroxide, FIG. 11
Procedure: To induce apoptosis, rat cortical cells were cultured and treated with 50 μM hydrogen peroxide for three hours prior to being treated with the ganglioside analogue. The cells were also treated with the hydrogen peroxide during treatment with the ganglioside analogue and post-treatment for 48 h. Cell death was assayed using the MTT assay.

[9] = test system: Parkinson's disease patients; conditions: peripheral subcutaneous administration for 5 years; cited from earlier work
[10] = peripheral subcutaneous administration; cited from earlier work
[11] = 1 μM, differentiated 7 days with db-cAMP/KCl, MPP and compound 2 days

Molecule: N[C@@H](Cc1ccc(O)c(O)c1)C(=O)O [L-DOPA, reference compound]
- motor deficits (grip duration, irritant removal) ([1]; before and after IP injection of L-DOPA): alleviates motor deficits

Molecule: CCCCCCCCCCCCC/C=C/[C@@H](O)[C@H](CO[C@@H]1OC(CO)[C@@H](O[C@@H]2OC(CO)[C@H](O[C@@H]3OC(CO)[C@H](O)[C@H](O[C@@H]4OC(CO)[C@H](O)[C@H](O)C4O)C3NC(C)=O)[C@H](O[C@]3(C(=O)O)C[C@@H](O)[C@@H](NC(C)=O)C([C@H](O)[C@H](O)CO)O3)C2O)[C@H](O)C1O)NC(=O)C(Cl)Cl (some centres unmarked) [compound XVIII]
- TH+ dopaminergic neuron number in SNpc [2]: increase in TH+ dopaminergic cells; also recorded: neuron number increase
- striatal dopamine (DA) levels [2]: elevation of striatal dopamine; also recorded: DA levels increase
- αSyn aggregates in TH+ cells of SNpc [2]: reduction of αSynuclein; also recorded: αSyn aggregates decrease
- motor function (grip duration, irritant removal, pole climbing tests) ([1]; 2.5 mg/Kg, 3x/wk, IP, 5 weeks, vs saline, 2.5 mg/kg): significantly improved motor function; also recorded: improves motor function
- cognitive function, T-maze rate of alternation [3]: improves cognitive function
- RET phosphorylation (RET-p) ([4]; HT mice (low GM1)): significantly elevated
- RET phosphorylation (RET-p) ([4]; KO mice (no GM1)): significantly elevated
- αSyn-aggregation (FITC-anti-αSyn antibody staining) [5]: suppressed
- % of cells with neurites [6, 11]: similarly improved
- relative cell number [6, 11]: significantly improved

Molecule: GM1
- striatal dopamine levels [7]: increased striatal dopamine levels
- protection of cells from apoptosis [8]: provided protection of the cells from apoptosis
- % of cells with neurites ([6]; GM1 at 100 μM): similarly improved
- relative cell number ([6]; GM1 at 100 μM, compared with LIGA-20 and compound 6 at 1 μM): equivalent
- progression of motor function loss [9]: slowed the progression of motor function loss
- share of the administered dose able to penetrate the brain [10]: less than 1%
